Data on 3 compounds can be found in US20100063085A1, “METHOD OF TREATING LEARNING IMPAIRMENT IN DOWN'S SYNDROME SUBJECTS” (University Court of The University of Dundee, priority 2008, published 2010).

Read-outs that look alike come from different tables or passages of the source.

What all share (type): biochemical
The target of assay [1] is T1, SAPK4/p38d (Homo sapiens, UniProt O15264).
T1 sequence (O15264 1-365): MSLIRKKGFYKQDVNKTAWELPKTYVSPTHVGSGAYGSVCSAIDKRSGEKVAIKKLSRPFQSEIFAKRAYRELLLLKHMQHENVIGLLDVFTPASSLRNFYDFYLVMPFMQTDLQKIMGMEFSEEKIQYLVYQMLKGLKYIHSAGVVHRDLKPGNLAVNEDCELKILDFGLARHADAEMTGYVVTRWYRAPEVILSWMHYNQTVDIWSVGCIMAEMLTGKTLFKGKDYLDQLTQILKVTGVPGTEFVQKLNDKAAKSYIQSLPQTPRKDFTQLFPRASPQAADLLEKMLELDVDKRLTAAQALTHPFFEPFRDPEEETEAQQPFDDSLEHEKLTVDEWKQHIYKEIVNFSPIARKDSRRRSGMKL
In words: SAPK4/p38d 33P kinase assay. The conditions noted are these: read-out: SAPK4/p38d activity as percentage of control without inhibitor. As for the experimental part:
(§1) All assays (25.5 μl) were carried out at room temperature (21° C.) and were linear with respect to time and enzyme concentrations under the conditions used. Assays were performed for 30 minutes except assays for LCK and PKB which were performed for 15 minutes using Multidrop Micro reagent dispensers (Thermo Electron Corporation, Waltham, Mass. 02454, USA) in a 96-well format. The concentration of […] [γ-^33P] ATP (800 cpm/pmol) in the assays was one of three concentrations (5, 20 or 50 μM) in order to be at or below Km for ATP for the enzyme. Assays were initiated with MgATP and stopped by addition of 5 μl of 0.5M orthophosphoric acid. Assays were then harvested onto P81 filterplates using a unifilter harvester (PerkinElmer, Boston, Mass. 02118, USA), with a wash buffer of 50 mM orthophosphoric acid. Filterplates were then air dried overnight. 10 μl of Microscint O was added per well prior to counting for radioactivity.
(§2) MKK1, JNK/SAPK1c, SAPK2a/p38, SAPK2b/p38β2, SAPK3/p38γ, SAPK4/p38δ, MAPK2/ERK2, MAPKAP-K1β, MAPKAP-K2, MSK1, PRAK, PKA, PKCα, PDK1, SGK, p70S6K, GSK3β, ROCK-II, PRK2, AMPK, CHK1, CHK2, CK2, PHK, LCK, were assayed according to Davies et al., (Davies, S. P., Reddy, H., Caivano, M. and Cohen, P. Biochem. J. 351, 95-105, 2000.
(§3) CSK and CDK2/cyclinA, were assayed according to Bain et al. (Bain J, McLauchlan H, Elliott M, Cohen P. Biochem J. 371, 199-204, 2003., except that ATP concentrations were either 5, 20 or 50 micromolar so that they were at or below the Km for ATP. The ATP concentrations used were as follows, 5 μM for assays of MKK1, SAPK3, SAPK4, GSK3β, PRK2 CK2 20 μm for assays of JNK, SAPK2β, MAPKAP-K2, MSK1, PRAK, PKA, […], PDK1, SGK, p70S6K, ROCK-II, CHK1, CHK2, CSK, CDK2, and 50 μM for assays of SAPK2a, MAPK2/ERK2, AMPK, LCK, PHK and MAPKAP-K1β.

Assay [2] concerns the target GSK3b (Homo sapiens, UniProt P49841). Nature of the assay: GSK3b 33P kinase assay. The conditions noted are these: read-out: GSK3b activity as percentage of control without inhibitor. As for the experimental part: as §1, §2, §3
The test system of assay [3] is AMPK. In words: AMPK 33P kinase assay. The protocol:
as §1, §2, §3

Assay [4] concerns the target T2, DYRK1a (Homo sapiens, UniProt Q13627).
T2 construct: made in house
In words: biochemical. Conditions: for remaining activity at 1 µM / remaining activity at 10 µM: read-out: DYRK1a activity as percentage of control without inhibitor. As for the experimental part:
DYRK1A (5-20 mU of diluted in 50 mM Tris pH 7.5, 0.1 mM EGTA) was assayed against Woodtide ([…]) in a final volume of 25.5 μl containing 50 mM Tris pH 7.5, 0.1 mM EGTA, 350 uM substrate peptide, 10 mM magnesium acetate and 0.5 μl inhibitor and incubated at room temperature for 5 mins, followed by the addition of 0.05 mM [33P-gamma-ATP] (50-1000 cpm/pmole) and incubated for 30 mins at room temperature. Assays were stopped by addition of 5 μl of 0.5 M (3%) orthophosphoric acid then harvested onto P81 Unifilter plates with a wash buffer of 50 mM orthophosphoric acid. Filterplates were then air dried overnight. 10 μl of Microscint O was added per well prior to counting for radioactivity.

Sequence of GSK3b (P49841 whole entry, species assumed): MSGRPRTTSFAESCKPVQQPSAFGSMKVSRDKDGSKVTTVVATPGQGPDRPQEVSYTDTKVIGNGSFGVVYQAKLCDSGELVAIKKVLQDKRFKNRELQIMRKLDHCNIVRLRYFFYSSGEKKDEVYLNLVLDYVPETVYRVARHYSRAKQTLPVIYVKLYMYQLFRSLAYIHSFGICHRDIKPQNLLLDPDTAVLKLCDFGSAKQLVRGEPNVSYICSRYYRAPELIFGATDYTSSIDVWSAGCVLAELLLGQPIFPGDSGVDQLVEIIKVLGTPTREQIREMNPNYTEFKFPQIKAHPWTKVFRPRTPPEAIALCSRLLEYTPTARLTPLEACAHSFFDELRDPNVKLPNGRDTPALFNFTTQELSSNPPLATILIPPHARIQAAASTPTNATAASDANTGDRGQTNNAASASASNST

As to `COc1ccc2c3c([nH]c2c1)C(C)=NCC3` [Harmaline], the values for the remaining activity at 1 µM in assay [1] (inhibitor 1 μM), in assay [2] and in assay [4] (inhibitor 1 μM) were 76%, 77% and 78%, respectively. Also, the results for the remaining activity at 10 µM in assay [1] (inhibitor 10 μM), in assay [2] and in assay [4] (inhibitor 10 μM) were 113%, 82% and 8%, respectively. For the same compound, the “AMPK activity as percentage of control without inhibitor” value in assay [3] (inhibitor 1 μM) stood at 97%; in assay [3] (inhibitor 10 μM), 83%.

`CC1=NCCc2c1[nH]c1cc(O)ccc21` [Harmalol]: the remaining activity at 1 µM in assay [1] (inhibitor 1 μM) stood at 101%; in assay [2] (inhibitor 1 μM), 90%; in assay [4] (inhibitor 1 μM) it was 25%. The remaining activity at 10 µM in assay [1] (inhibitor 10 μM) is 93%; in assay [2] (inhibitor 10 μM), 73%; in assay [4] (inhibitor 10 μM), 3%. Also, the “AMPK activity as percentage of control without inhibitor” value is 92% in assay [3] (inhibitor 1 μM) and 52% in assay [3] (inhibitor 10 μM).

As for `COc1ccc2c(c1)[nH]c1c(C)nccc12` [Harmine], the remaining activity at 1 µM in assay [1] was determined as 96%; in assay [2], 82%; in assay [4], 4%. Moreover, the remaining activity at 10 µM was 82% in assay [1], 72% in assay [2] and 1% in assay [4]. The “AMPK activity as percentage of control without inhibitor” value is listed as 98% in assay [3] (inhibitor 1 μM) and 103% in assay [3] (inhibitor 10 μM). Moreover, in assay [4], the “inhibition of DYRK1a, result in words” value is “very potent and specific inhibitor of DYRK1a”.
